For 33 compounds, EC50 results are on record in ChEMBL document CHEMBL5725356, “Anti-fibrotic pyridinones” (2017).

This experiment can be described thus: ET-1 Assay: Fibroblasts (primary human lung and dermal, HFL-1, 3T3 etc) are seeded in 96-well plates at ~15000 cells/well and serum starved for 0-48 hours. After media exchange, compounds serially diluted in DMSO are added to the cells. After a brief incubation of ~30 min, stimulants (TGFb, serum, LPA etc) are added followed by further incubation for 16-48 hours. Media is then harvested and stored frozen in plate format for later endothelin-1 (ET-1) determination by ELISA. Toxicity measurements are made using the ATPlite kit (Perkin-Elmer). ET-1 is quantified using an ELISA kit (R&D Systems). The amount of ET-1 produced in the assay wells are back-calculated using the ELISA standard. The ability of a compound to inhibit ET-1 production is typically analyzed by fitting dose-response curves to a 4-parameter logistic function to obtain an EC50 value. The conditions noted are these: HFL1.
Take `Cc1cc(=O)n(-c2ccc(OC(F)(F)F)cc2)cc1-c1ccc(F)c(F)c1`: the EC50 (in general, the midpoint of the concentration-response curve) is “in the range around 125 µM”.

With `Cc1cc(=O)n(-c2ccc(OC(F)(F)F)cc2)cc1-c1ccc2c(c1)OCCO2`, the EC50 entry was “in the range around 125 µM”.

Take `Cc1cc(=O)n(-c2ccc(OC(F)(F)F)cc2)cc1-c1cccc(F)c1`: the EC50 was under 50 µM.

On to `Cc1cc(=O)n(-c2ccccc2)cc1-c1ccc(F)cc1`, for which the EC50 entry was “in the range around 125 µM”.

Consider `Cc1cc(=O)n(-c2cccc(N)c2)cc1-c1ccc(F)cc1`, for which the EC50 entry is “in the range around 125 µM”.

As for `Cc1cc(=O)n(-c2ccc(OC(F)(F)F)cc2C)cc1-c1ccc(F)cc1`, the EC50 is under 50 µM.

Take `Cc1cc(=O)n(-c2ccccc2F)cc1-c1ccc(F)cc1`: the EC50 entry was “in the range around 125 µM”.

Regarding `Cc1cc(=O)n(-c2ccc(OC(F)(F)F)cc2)cc1-c1ccc(F)c(Cl)c1`, the EC50 was under 50 µM.

Take `CC(C)c1cc(=O)n(-c2ccc(OC(F)(F)F)cc2)cc1-c1ccc(F)cc1`: the EC50 entry is “in the range around 125 µM”.

On to `Cc1cc(=O)n(-c2ccc3c(c2)OCCO3)cc1-c1ccc(F)cc1`, for which the EC50 is over 200 µM.

For `CCc1cc(=O)n(-c2ccc(OC(F)(F)F)cc2)cc1-c1ccc(F)cc1`, the EC50 entry is “in the range around 125 µM”.

On to `Cc1cc(=O)n(-c2ccc(OC(F)(F)F)cc2)cc1-c1cccc2c1OCCO2`, for which the EC50 was under 50 µM.

As to `Cc1cc(=O)n(-c2ccc(OC(F)(F)F)cc2)cc1-c1ccc2c(c1)OCO2`, the EC50 entry was “in the range around 125 µM”.

`Cc1cc(=O)n(-c2cccc(OC(F)(F)F)c2)cc1-c1ccc(F)cc1`: the EC50 was under 50 µM.

With `Cc1cc(=O)n(-c2ccc(OC(F)(F)F)cc2)cc1-c1cccc2c1OC(C)(C)O2`, the EC50 result was “in the range around 125 µM”.

Take `Cc1cc(=O)n(-c2ccc(OC(F)(F)F)cc2)cc1-c1ccc(Cl)c(F)c1`: the EC50 result was “in the range around 125 µM”.

As for `CCOc1ccc(-n2cc(-c3cccc(F)c3)c(C)cc2=O)c(C)c1`, the EC50 result is “in the range around 125 µM”.

`CNC(=O)c1cccc(-n2cc(-c3ccc(F)cc3)c(C)cc2=O)c1`: the EC50 entry is “in the range around 125 µM”.

On to `Cc1cc(=O)n(-c2ccc(OC(F)(F)F)cc2)cc1-c1ccc(Cl)c(Cl)c1`, for which the EC50 entry is “in the range around 125 µM”.

On to `Cc1cc(=O)n(-c2ccc(OC(F)(F)F)cc2)cc1-c1cccc2c1OCO2`, for which the half-maximal effective concentration (EC50) is under 50 µM.

Take `Cc1cc(=O)n(-c2cccc(C(F)(F)F)c2)cc1-c1ccc(F)cc1`: the concentration for a half-maximal effect (EC50) entry was “in the range around 125 µM”.

As to `Cc1cc(=O)n(-c2ccc3c(c2)OCO3)cc1-c1ccc(F)cc1`, the EC50 was over 200 µM.

With `Cc1cc(=O)n(-c2cccc(C(N)=O)c2)cc1-c1ccc(F)cc1`, the EC50 was over 200 µM.

`O=c1cc(C(F)(F)F)c(-c2ccc(F)cc2)cn1-c1ccc(OC(F)(F)F)cc1`: the EC50 result was “in the range around 125 µM”.

On to `Cc1cc(=O)n(-c2cccc(NC(N)=O)c2)cc1-c1ccc(F)cc1`, for which the EC50 is under 50 µM.

As for `Cc1cc(=O)n(-c2cccc3c2OCO3)cc1-c1ccc(F)cc1`, the EC50 entry is “in the range around 125 µM”.

Take `Cc1cc(=O)n(-c2cccc3c2OCCO3)cc1-c1ccc(F)cc1`: the 50% effective concentration (EC50) result is “in the range around 125 µM”.

As for `Cc1cc(=O)n(-c2ccc(OC(F)(F)F)cc2)cc1-c1ccccc1F`, the EC50 was under 50 µM.

Regarding `Cc1cc(=O)n(-c2ccc(OC(F)(F)F)cc2)cc1-c1ccc(-c2cncs2)cc1`, the half-maximal effective concentration (EC50) result is “in the range around 125 µM”.

Regarding `Cc1cc(=O)n(-c2ccc(Cl)cc2)cc1-c1ccc(F)cc1`, the EC50 is over 200 µM.

`COc1cc(-n2cc(-c3ccc(F)cc3)c(C)cc2=O)cc(OC)c1OC`: the EC50 entry is “in the range around 125 µM”.

Consider `CCOc1ccc(-n2cc(-c3ccc(F)cc3)c(C)cc2=O)c(C)c1`, for which the concentration giving a half-maximal response (EC50) entry was “in the range around 125 µM”.

`Cc1cc(=O)n(-c2ccc(OC(F)(F)F)cc2)cc1-c1cccc(Cl)c1`: the EC50 result was “in the range around 125 µM”.
